Source: patent publication US20240201203A1, “COMPOSITIONS AND METHODS FOR TREATING INDIVIDUALS WHO HAVE ONCOGENE-NEGATIVE CANCER” (priority 2021, published 2024)

Tests used:
[1] = test system: Nf1, Rasa1, and Pten mutant oncogene-negative lung tumors; assay: Drug efficacy study in TC mice with oncogene-negative lung tumors (Tuba-seq, imaging, histology); assay type: in vivo, mouse; conditions: tumors from sgNf1/sgRasa1/sgPten vectors, capivasertib 100 mg/kg, RMC-4550 30 mg/kg, gavage, two weeks, 3.5 months after tumor initiation, vs vehicle
Experimental: For drug efficacy studies, TC mice (8-12 weeks old) were divided into 4 groups randomly. They received the vehicle, capivasertib (100 mg/kg, Med Chem Express), RMC-4550 (30 mg/kg, Med Chem Express), or a combination of both dissolved in 10% DMSO, 40% PEG, 5% Tween 80, and 45% PBS through a gavage needle. Mice were treated daily with drugs for eight days, and the treatment was stopped for two days for recovery, and it continued for two more days before the tissue harvest.
Tumors were initiated by intratracheal delivery of pooled or individual Lenti-sgRNA/Cre vectors. Barcoded Lenti-sgRNA/Cre vectors within each viral pool are indicated in each figure. […]
For DNA extraction from single dissected tumors to generate libraries for Tuba-seq, targeted sequencing of selected oncogenes, and whole-exome sequencing, we used Qiagen AllPrep DNA/RNA Micro kit. […] Three cell lines (100,000 to 500,000 cells each) were added to each mouse lung sample before lysis to enable the calculation of the absolute number of neoplastic cells in each tumor from the number of sgID-BC reads. […] The concentration and quality of the purified libraries were determined using the Agilent High Sensitivity DNA kit (Agilent Technologies, 5067-4626) on the Agilent 2100 Bioanalyzer (Agilent Technologies, G2939BA). […]
The FASTQ files were parsed to identify the sgID and barcode (BC) for each read. […]

RAS and PI3K signaling = assay: Immunoblot of oncogene-negative cell lines treated with drugs; assay type: cell-based, mouse; conditions: 3 oncogene-negative cell lines, 10 uM, 24 hours
Experimental: (§1) Cell lines were generated from tumors initiated in Trp53^flox/flox; TC BL6 mice four months after transduction with Lenti-sgNf1-sgRasa1-sgPten/Cre. After dissociation of tumors (described below), cells were cultured in the regular media.
For apoptosis and proliferation assays, 3×10^5 cells were seeded into 6-well plates and allowed to adhere overnight in regular growth media and cultured in the presence or absence 10 uM of Capivasertib, RMC-4550, or a combination of both drugs. After 24 hours, the protein was extracted using RIPA lysis buffer (Thermo Fisher Scientific, 89900) and proteinase/phosphatase inhibitor cocktail (Thermo Fisher Scientific, 78442). Protein concentration was measured using BCA protein assay kit (Thermo Fisher Scientific, 23250). Proteins (30 ug from each sample) were separated by SDS-PAGE and immunoblotted and transferred to polyvinyl difluoride (PVDF) membranes (BioRad, 162-0177) according to standard protocols. Membranes were immunoblotted with antibodies against phosphor-ERK (Cell Signaling Technology, 4370), ERK (Cell Signaling Technology, 9102), phosphor-AKT (Thermo Fisher Scientific, 44-621G), AKT (Cell Signaling Technology, 4691), phospho-S6 (Cell Signaling Technology, 4858), S6 (Cell Signaling Technology, 2217), and HSP90 (BD Bioscience, 610418). […]

[2] = test system: Nf1, Rasa1, and Pten-mutant lung adenocarcinoma cell-lines; assay: Clonogenic growth assay and Loewe synergy, mouse oncogene-negative cell lines; assay type: cell-based; conditions: three mouse cell lines, various doses, four days, crystal violet
Experimental: as §1
For clonogenic assays, cells were seeded in triplicate into 24-well plates (4000 cells per well) and allowed to adhere overnight in regular growth media. Cells were then cultured in the absence or presence of the drug as indicated on each figure panel in complete media for 4 days. Growth media with or without drugs was replaced every 2 days. The remaining cells were stained with 0.5% crystal violet in 20% methanol and photographed using a digital scanner. Relative growth was quantified by densitometry after extracting crystal violet from the stained cells using 100% methanol.
Drug synergism was analyzed using SynergyFinder (https://synergyfinder.fimm.fi) web application. The degree of combination synergy, or antagonism, is quantified by comparing the observed drug combination response against the expected response, calculated using Loewe's model that assumes no interaction between drugs.

SMILES | total tumor burden (Tuba-seq analysis) [1] | RAS signaling (immunoblot) (RAS and PI3K signaling) | overall growth of oncogene-negative cell lines [2] | PI3K signaling (immunoblot) (RAS and PI3K signaling)
Cc1nc(N2CCC3(CC2)CO[C@@H](C)[C@H]3N)c(CO)nc1-c1cccc(Cl)c1Cl [RMC-4550] | reduced the total tumor burden significantly | reduced | decreased the overall growth of three oncogene-negative RAS/PI3K cell lines in a dose-dependent manner | 
NC1(C(=O)N[C@@H](CCO)c2ccc(Cl)cc2)CCN(c2ncnc3[nH]ccc23)CC1 [capivasertib] | ineffective |  | decreased the overall growth of three oncogene-negative RAS/PI3K cell lines in a dose-dependent manner | reduced
